Source: patent publication US8163700B2, “Inhibitors of myelin-associated glycoprotein (MAG) activity for regulating neural growth and regeneration” (Research Foundation of City University of New York, priority 2002, dated 2012)
Residue numbers refer to the chain shown, from its start. Names may count otherwise. “Also recorded” adds a separate entry of the source.

B1: MAG(L431D)-Fc: murine MAG-Fc with point mutation L431D, Ig domain 5 (protein, listed as Mus sp.)
chain: MIFLATLPLFWIMISASRGGHWGAWMPSTISAFEGTCVSIPCRFDFPDELRPAVVHGVWYFNSPYPKNYPPVVFKSRTQVVHESFQGRSRLLGDLGLRNCTLLLSTLSPELGGKYYFRGDLGGYNQYTFSEHSVLDIVNTPNIVVPPEVVAGTEVEVSCMVPDNCPELRPELSWLGHEGLGEPTVLGRLREDEGTWVQVSLLHFVPTREANGHRLGCQAAFPNTTLQFEGYASLDVKYPPVIVEMNSSVEAIEGSHVSLLCGADSNPPPLLTWMRDGMVLREAVAKSLYLDLEEVTPGEDGVYACLAENAYGQDNRTVELSVMYAPWKPTVNGTVVAVEGETVSILCSTQSNPDPILTIFKEKQILATVIYESQLQLELPAVTPEDDGEYWCVAENQYGQRATAFNLSVEFAPIILLESHCAAARDTVQCDCVVKSNPEPSVAFELPSRNVTVNETEREFVYSERSGLLLTSILTIRGQAQAPPRVICTSRNLYGTQSLELPFQGAHRLMWAKIGPVGAVVAFAILIAIVCYITQTRRKKNVTESSSFSGGDNPHVLYSPEFRISGAPDKYESREVSTRDCH
modifications: Fc fusion
B2: MAG(L346D)-Fc: murine MAG-Fc with point mutation L346D, Ig domain 4 (protein, UniProt P20917 20-516, looked up, variant L346D)
extracellular domain: GHWGAWMPSTISAFEGTCVSIPCRFDFPDELRPAVVHGVWYFNSPYPKNYPPVVFKSRTQVVHESFQGRSRLLGDLGLRNCTLLLSTLSPELGGKYYFRGDLGGYNQYTFSEHSVLDIVNTPNIVVPPEVVAGTEVEVSCMVPDNCPELRPELSWLGHEGLGEPTVLGRLREDEGTWVQVSLLHFVPTREANGHRLGCQAAFPNTTLQFEGYASLDVKYPPVIVEMNSSVEAIEGSHVSLLCGADSNPPPLLTWMRDGMVLREAVAKSLYLDLEEVTPGEDGVYACLAENAYGQDNRTVELSVMYAPWKPTVNGTVVAVEGETVSIDCSTQSNPDPILTIFKEKQILATVIYESQLQLELPAVTPEDDGEYWCVAENQYGQRATAFNLSVEFAPIILLESHCAAARDTVQCLCVVKSNPEPSVAFELPSRNVTVNETEREFVYSERSGLLLTSILTIRGQAQAPPRVICTSRNLYGTQSLELPFQGAHRLMWAKIGP
modifications: extracellular domain Fc fusion
B3: MAG(E410K)-Fc: murine MAG-Fc with point mutation E410K, Ig domain 4/5 (protein, UniProt P20917 20-516, looked up, variant E410K)
extracellular domain: B2 extracellular domain with D327L, E391K
modifications: extracellular domain Fc fusion

System: cerebellar neurons
Test: Neurite outgrowth on L1-Fc substrate in the presence of soluble MAG-Fc chimeras (FIG. 3)
Assay type: cell-based
Conditions: soluble protein 25 μg/ml, 18 hours, compared to control chimera
Experimental: FIG. 3 Inhibition of neurite outgrowth from cerebellar neurons by MAG-Fc Derivatives Cerebellar neurons were isolated (Example 1) and plated onto a growth promoting substrate of L1 protein (Example 4). A control MUC-Fc fusion (clear bar), wild-type MAG-Fc (striped bar) and MAG-Fc derivatives having point mutations in MAG Ig-like domains 4 or 5 (grey bars) were constructed (Example 4) and added in soluble form to neurons (25 μg/ml). After 18 hours, cultures were fixed and stained for GAP-43 antigen. Neurite length was measured and the average length was calculated for 180-200 neurons (+/−SEM).
Individual wells of an eight-chamber tissue culture plastic slide (Lab-Tek, Nuc. Inc.) were incubated with 0.3 nil of 16.6 μg/ml poly-1-lysine in sterile water for at least one hour under sterile conditions. Each well was washed twice with 400 μl of a 0.1M sodium bicarbonate solution, pH 9.6, and then received 0.3 ml of 0.1M sodium bicarbonate solution, pH 9.6, containing 15 μg/ml goat anti-human IgG (Fc-specific) monoclonal antibody (Sigma). The wells were incubated for 2 hours (h) at 37° C., and washed three times with 0.4 ml of ice-cold DMEM. Each well then received 0.3 nil of DMEM containing 40 μg/ml of L1-Fc and was incubated for 2-4 h at 37° C. The welts were washed twice DMEM.
Cerebellar neurons (post-natal days 2-7) were dissociated by trypsinization as described in Example 1, except that the dissociated neurons were resuspended in 5 ml of SATO medium containing 2% dialyzed FBS. To an individual well coated with a monolayer of L1-Fc as described above, 5.0×10^4 cerebellar neurons were added, followed by addition of one of the mutant MAG-Fc or MUC18-Fc chimeric soluble protein described above at a concentration of 25 μg/ml. Neurons were cultured for 18 hours at 37° C., and then fixed and stained for GAP43 essentially as described in Example 2. Neurite length was measured for 180-200 neurons.

| Molecule | inhibition of neurite outgrowth (in words) |
| --- | --- |
| B1 | none |
| B2 | inhibited neurite outgrowth as effectively as MAG-Fc |
| B3 | inhibited neurite outgrowth as effectively as MAG-Fc |

System: wild-type MAG-expressing cells
Test: Neurite outgrowth on MAG-expressing cells in the presence of MAG, Nogo and OMgp peptides (Example 6)
Assay type: cell-based
Conditions: tested as described in Example 5; example written in present tense
Source text: Peptides corresponding to amino acid residues […] of MAG (MAG(343-371)), amino acid residues 363-397 (MAG(363-397)), amino acid residues 394-428 (MAG(394-428)), amino acid residues 422-451 (MAG(422-451)), amino acid residues 442-471 (MAG(442-471)), and amino acid residues 461-498 (MAG(461-498)) were synthesized. Peptides were obtained from SynPep Corp. (Dublin, Calif.). MAG(343-371), MAG(363-397) and MAG(394-428) correspond to amino acid residues from the Ig4 domain of MAG. MAG(422-451), MAG(442-471) and MAG(461-498) corresponds to amino acid residues from the Ig5 domain of MAG. […] Results are shown in FIG. 4 (and are represented as number of neurons with processes longer than 2-times the cell diameter). […] Results are shown in FIG. 5 (and are represented as average neurite length for 180-200 neurons).
Peptides corresponding to MAG amino acid residues 437-441 (M437), 446-455 (M446), 450-455 (M450), 466-471 (M466); and 472-477 (M472) are constructed and tested in neurite outgrowth assays as described in Example 5. (See peptides in FIG. 18).
Peptides corresponding to Nogo-66 amino acid residues 13-17 (N13), 22-31(N22-1), 22-34 (N22-2), 26-31 (N26-1); 26-34 (N26-2); 9-33 (N-9-1); 9-34 (N-9-2); 38-62 (N38); 42-47 (N42); and 48-53 (N48) are also constructed and tested in neurite outgrowth assays as described in Example 5.
Peptides corresponding to OMgp amino acid residues 206-210 (O206), 215-224 (O215), 219-224 (O219), 202-226 (O202); 231-255 (O231), 235-240 (O235) 241-246 (O241) are constructed and tested in neurite outgrowth assays as described in Example 5.

| Molecule | effect on the ability of wild-type MAG-expressing cells to inhibit neurite outgrowth |
| --- | --- |
| M437: peptide of MAG amino acid residues 437-441 (SEQ ID NO: 17) (NPEPS) | reduce the ability of the wild-type MAG-expressing cells to inhibit neurite outgrowth |
| M446: peptide of MAG amino acid residues 446-455 (SEQ ID NO: 18) (LPSRNVTVNE) | reduce the ability of the wild-type MAG-expressing cells to inhibit neurite outgrowth |
| M450: peptide of MAG amino acid residues 450-455 (SEQ ID NO: 19) (NVTVNE) | reduce the ability of the wild-type MAG-expressing cells to inhibit neurite outgrowth |
| M466: peptide of MAG amino acid residues 466-471 (SEQ ID NO: 21) (SGLLLT) | reduce the ability of the wild-type MAG-expressing cells to inhibit neurite outgrowth |
| M472: peptide of MAG amino acid residues 472-477 (SEQ ID NO: 22) (SILTLR) | reduce the ability of the wild-type MAG-expressing cells to inhibit neurite outgrowth |
| N38: peptide of Nogo-66 amino acid residues 38-62 (SEQ ID NO: 32) (SNSALGHVNSTIKELRRLFLVDDLV) | reduce the ability of wild-type MAG-expressing cells to inhibit neurite outgrowth; also recorded: reduce the ability of the wild-type MAG-expressing cells to inhibit neurite outgrowth |
| N42: peptide of Nogo-66 amino acid residues 42-47 (EEDEDE; Nogo-66; UniProt Q9NQC3 42-47, looked up, fragment) | reduce the ability of wild-type MAG-expressing cells to inhibit neurite outgrowth; also recorded: reduce the ability of the wild-type MAG-expressing cells to inhibit neurite outgrowth |
| N48: peptide of Nogo-66 amino acid residues 48-53 (DLEELE; Nogo-66; UniProt Q9NQC3 48-53, looked up, fragment) | reduce the ability of wild-type MAG-expressing cells to inhibit neurite outgrowth; also recorded: reduce the ability of the wild-type MAG-expressing cells to inhibit neurite outgrowth |
| N-9-1: peptide of Nogo-66 amino acid residues 9-33 (LVSSSDSPPRPQPAFKYQFVREPED; Nogo-66; UniProt Q9NQC3 9-33, looked up, fragment) | reduce the ability of wild-type MAG-expressing cells to inhibit neurite outgrowth; also recorded: reduce the ability of the wild-type MAG-expressing cells to inhibit neurite outgrowth |
| N-9-2: peptide of Nogo-66 amino acid residues 9-34 (LVSSSDSPPRPQPAFKYQFVREPEDE; Nogo-66; UniProt Q9NQC3 9-34, looked up, fragment) | reduce the ability of wild-type MAG-expressing cells to inhibit neurite outgrowth; also recorded: reduce the ability of the wild-type MAG-expressing cells to inhibit neurite outgrowth |
| O202: peptide of OMgp amino acid residues 202-226 (SEQ ID NO: 38) (KFTFIPEQSFDQLLQLQEITLHNNR) | reduce the ability of the wild-type MAG-expressing cells to inhibit neurite outgrowth |
| O206: peptide of OMgp amino acid residues 206-210 (SEQ ID NO: 35) (IPEQS) | reduce the ability of the wild-type MAG-expressing cells to inhibit neurite outgrowth |
| O215: peptide of OMgp amino acid residues 215-224 (SEQ ID NO: 36) (LQLQEITLHN) | reduce the ability of the wild-type MAG-expressing cells to inhibit neurite outgrowth |
| O219: peptide of OMgp amino acid residues 219-224 (SEQ ID NO: 37) (EITLHN) | reduce the ability of the wild-type MAG-expressing cells to inhibit neurite outgrowth |
| O231: peptide of OMgp amino acid residues 231-255 (SEQ ID NO: 39) (HKQNITYLLKWVMETKAHVIGTPCS) | reduce the ability of the wild-type MAG-expressing cells to inhibit neurite outgrowth |
| O235: peptide of OMgp amino acid residues 235-240 (SEQ ID NO: 40) (ITYLLK) | reduce the ability of the wild-type MAG-expressing cells to inhibit neurite outgrowth |
| O241: peptide of OMgp amino acid residues 241-246 (SEQ ID NO: 41) (WVMETK) | reduce the ability of the wild-type MAG-expressing cells to inhibit neurite outgrowth |
